Source: US20070202512A1, “Human single nucleotide polymorphisms associated with dose-dependent weight gain and methods of use thereof” (Bristol-Myers Squibb Company, priority 2005, published 2007)

How the values were obtained:
[1] = Phase II clinical trial CV168-006: weight gain by PPAR-alpha SNP1 (Leu162Val) genotype; type: in vivo, human
Method: Genomic DNA samples from patients enrolled in a Bristol-Myers Squibb Company Phase II clinical trial CV168-006 trial were genotyped for 1 SNP identified in the human PPAR-alpha gene (see Example 1) and evaluated for association with weight gain.
(§1) 498 subjects enrolled in the CV168-006 trial were analyzed in this study. All analyses were based on data collected up to 24 weeks, which was the duration of the short-term phase of the trials. DNA was extracted from frozen blood by a third-party (Genaissance Inc, North Carolina) using a salting-out method (Gentra Systems). All subjects gave written informed consent.
(§2) Genotyping was performed using the 5′ nuclease assay, essentially as described (Ranade K et al., Genome Research 11: 1262-1268 (2001); which is hereby incorporated by reference herein in its entirety), with the following modifications: six nanograms of genomic DNA were used in a 8 ul reaction. All PCR reactions were performed in an ABI 9700 machine and fluorescence was measured using an ABI 7900 machine.
The association between weight gain and the single nucleotide polymorphisms of the present invention were investigated by applying statistical analysis to the results of the genotyping assays described elsewhere herein. […]
Statistical Analyses. The influence of the SNP on weight gain was assessed using ANOVA. […]

[2] = thought to be due to increased fluid retention and fat accumulation; cited from earlier work
[3] = Phase II clinical trial CV168-006: weight gain by GRL SNP1 (Asn363Ser) genotype; type: in vivo, human; settings: patients treated with 20 mg in CV168-006; data up to 24 weeks
Method: (§3) Genomic DNA samples from patients enrolled in two Bristol-Myers Squibb Company Phase II clinical trial CV168-006 were genotyped for 1 SNP identified in the human GRL gene (see Example 7) and evaluated for association with weight gain.
as §1
(§4) The influence on SNP1 on weight gain and the probability of achieving lower levels of glycosylated hemoglobin (HbA1C) was assessed using ANOVA (GRL; P=0.005; P=0.007; respectively).
as §2, with “machine. […]” for “machine.”
(§5) Statistical Analyses. The influence of the SNP on weight gain and decreased glycosylated hemoglobin (HbA1C) was assessed using ANOVA. […]

[4] = tested on: glycosylated hemoglobin (HbA1C); test: Phase II clinical trial CV168-006: glycosylated hemoglobin (HbA1C) by GRL SNP1 (Asn363Ser) genotype; type: in vivo, human; settings: patients treated with 20 mg in CV168-006; data up to 24 weeks
Method: as §3, §1, §4
as §2, with “machine. […]” for “machine.”
as §5

Compound | weight gain, carriers of the Valine allele vs homozygous Leucine allele (PPARα residue 162) ([1]; patients of a Phase II trial, Val carriers compared with Leu/Leu) | influence of PPAR-alpha SNP1 on weight gain, P (ANOVA) ([1]; patients treated with 20 mg in CV168-006, data up to 24 weeks) | weight gain (side effect) [2] | influence of GRL SNP1 on weight gain, P (ANOVA) [3] | influence of GRL SNP1 on lower levels of glycosylated hemoglobin (HbA1C), P (ANOVA) [4]
COc1ccc(OC(=O)N(CC(=O)O)Cc2ccc(OCCc3nc(-c4ccccc4)oc3C)cc2)cc1 [Compound A, N-[(4-methoxyphenoxy)carbonyl]-N-[[4-[2-(5-methyl-2-phenyl-4-oxazolyl)ethoxy]phenyl]methyl]glycine] | gained significantly less weight | 0.039 | result in weight gain | 0.005 | 0.007
CCc1ccc(CCOc2ccc(CC3SC(=O)NC3=O)cc2)nc1 (stereo not shown) [pioglitazone] | – | – | can cause weight gain in some individuals | – | –
CN(CCOc1ccc(CC2SC(=O)NC2=O)cc1)c1ccccn1 (stereo not shown) [rosiglitazone] | – | – | can cause weight gain in some individuals | – | –
